What was measured:
[1] = Growth inhibition of human EKVX cells after 48 hrs by sulforhodamine B assay; format: functional
[2] = tested on: HOP-62; assay: Growth inhibition of human HOP62 cells after 48 hrs by sulforhodamine B assay; format: functional; details: HOP-62, 48 h
[3] = Growth inhibition of human HOP92 cells after 48 hrs by sulforhodamine B assay; format: functional; details: HOP-92, 48 h
[4] = tested on: NCI-H226; assay: Growth inhibition of human NCI-H226 cells after 48 hrs by sulforhodamine B assay; format: functional; details: NCI-H226, 48 h
[5] = tested on: NCI-H23; assay: Growth inhibition of human NCI-H23 cells after 48 hrs by sulforhodamine B assay; format: functional; details: NCI-H23, 48 h
[6] = tested on: NCI-H322M; assay: Growth inhibition of human NCI-H322M cells after 48 hrs by sulforhodamine B assay; format: functional
[7] = tested on: NCI-H460; assay: Growth inhibition of human NCI-H460 cells after 48 hrs by sulforhodamine B assay; format: functional; details: NCI-H460, 48 h
[8] = tested on: NCI-H522; assay: Growth inhibition of human NCI-H522 cells after 48 hrs by sulforhodamine B assay; format: functional; details: NCI-H522, 48 h
[9] = Growth inhibition of human COLO205 cells after 48 hrs by sulforhodamine B assay; format: functional; details: COLO 205, 48 h
[10] = Growth inhibition of human HCC2998 cells after 48 hrs by sulforhodamine B assay; format: functional; details: HCC 2998, 48 h
[11] = Growth inhibition of human HCT116 cells after 48 hrs by sulforhodamine B assay; format: functional; details: HCT-116, 48 h
[12] = Growth inhibition of human HCT15 cells after 48 hrs by sulforhodamine B assay; format: functional; details: HCT-15, 48 h
[13] = tested on: HT-29; assay: Growth inhibition of human HT-29 cells after 48 hrs by sulforhodamine B assay; format: functional; details: HT-29, 48 h
[14] = tested on: KM12; assay: Growth inhibition of human KM12 cells after 48 hrs by sulforhodamine B assay; format: functional; details: KM12, 48 h
[15] = tested on: SW-620; assay: Growth inhibition of human SW620 cells after 48 hrs by sulforhodamine B assay; format: functional; details: SW-620, 48 h
[16] = tested on: SF-268; assay: Growth inhibition of human SF268 cells after 48 hrs by sulforhodamine B assay; format: functional; details: SF-268, 48 h
[17] = Growth inhibition of human SF295 cells after 48 hrs by sulforhodamine B assay; format: functional; details: SF-295, 48 h
[18] = Growth inhibition of human SF539 cells after 48 hrs by sulforhodamine B assay; format: functional; details: SF-539, 48 h
[19] = tested on: SNB-19; assay: Growth inhibition of human SNB19 cells after 48 hrs by sulforhodamine B assay; format: functional; details: SNB-19, 48 h
[20] = tested on: SNB-75; assay: Growth inhibition of human SNB75 cells after 48 hrs by sulforhodamine B assay; format: functional; details: SNB-75, 48 h
[21] = tested on: U-251; assay: Growth inhibition of human U251 cells after 48 hrs by sulforhodamine B assay; format: functional; details: U-251, 48 h
[22] = Growth inhibition of human LOXIMVI cells after 48 hrs by sulforhodamine B assay; format: functional; details: LOX IMVI
[23] = tested on: M14; assay: Growth inhibition of human M14 cells after 48 hrs by sulforhodamine B assay; format: functional; details: M14, 48 h
[24] = tested on: MDA-MB-435; assay: Growth inhibition of human MDA-MB-435 cells after 48 hrs by sulforhodamine B assay; format: functional; details: MDA-MB-435, 48 h
[25] = tested on: SK-MEL-2; assay: Growth inhibition of human SK-MEL-2 cells after 48 hrs by sulforhodamine B assay; format: functional; details: SK-MEL-2, 48 h
[26] = tested on: SK-MEL-5; assay: Growth inhibition of human SK-MEL-5 cells after 48 hrs by sulforhodamine B assay; format: functional; details: SK-MEL-5, 48 h
[27] = Growth inhibition of human UACC257 cells after 48 hrs by sulforhodamine B assay; format: functional; details: UACC-257, 48 h
[28] = Growth inhibition of human UACC62 cells after 48 hrs by sulforhodamine B assay; format: functional; details: UACC-62, 48 h
[29] = tested on: IGROV-1; assay: Growth inhibition of human IGROV1 cells after 48 hrs by sulforhodamine B assay; format: functional; details: IGROV-1, 48 h
[30] = Growth inhibition of human OVCAR3 cells after 48 hrs by sulforhodamine B assay; format: functional; details: OVCAR-3, 48 h
[31] = Growth inhibition of human OVCAR4 cells after 48 hrs by sulforhodamine B assay; format: functional; details: OVCAR-4, 48 h
[32] = Growth inhibition of human OVCAR8 cells after 48 hrs by sulforhodamine B assay; format: functional; details: OVCAR-8, 48 h
[33] = Growth inhibition of human NCI-ADR-RES cells after 48 hrs by sulforhodamine B assay; format: functional
[34] = tested on: SK-OV-3; assay: Growth inhibition of human SKOV3 cells after 48 hrs by sulforhodamine B assay; format: functional; details: SK-OV-3, 48 h
[35] = tested on: 786-0; assay: Growth inhibition of human 786-0 cells after 48 hrs by sulforhodamine B assay; format: functional; details: 786-0, 48 h
[36] = tested on: A498; assay: Growth inhibition of human A498 cells after 48 hrs by sulforhodamine B assay; format: functional; details: A498, 48 h
[37] = tested on: ACHN; assay: Growth inhibition of human ACHN cells after 48 hrs by sulforhodamine B assay; format: functional
[38] = tested on: CAKI-1; assay: Growth inhibition of human CAKI-1 cells after 48 hrs by sulforhodamine B assay; format: functional; details: CAKI-1, 48 h
[39] = Growth inhibition of human RXF393 cells after 48 hrs by sulforhodamine B assay; format: functional; details: RXF 393, 48 h
[40] = tested on: SN12C; assay: Growth inhibition of human SN12C cells after 48 hrs by sulforhodamine B assay; format: functional
[41] = Growth inhibition of human UO31 cells after 48 hrs by sulforhodamine B assay; format: functional; details: UO-31, 48 h
[42] = Growth inhibition of human PC3 cells after 48 hrs by sulforhodamine B assay; format: functional; details: PC-3, 48 h
[43] = tested on: DU-145; assay: Growth inhibition of human DU145 cells after 48 hrs by sulforhodamine B assay; format: functional; details: DU-145, 48 h
[44] = tested on: MCF7; assay: Growth inhibition of human MCF7 cells after 48 hrs by sulforhodamine B assay; format: functional; details: MCF7, 48 h
[45] = tested on: MDA-MB-231; assay: Growth inhibition of human MDA-MB-231 cells after 48 hrs by sulforhodamine B assay; format: functional; details: MDA-MB-231, 48 h
[46] = Growth inhibition of human Hs 578T cells after 48 hrs by sulforhodamine B assay; format: functional
[47] = Growth inhibition of human BT549 cells after 48 hrs by sulforhodamine B assay; format: functional; details: BT-549, 48 h
[48] = tested on: T47D; assay: Growth inhibition of human T47D cells after 48 hrs by sulforhodamine B assay; format: functional
[49] = tested on: MDA-MB-468; assay: Growth inhibition of human MDA-MB-468 cells after 48 hrs by sulforhodamine B assay; format: functional; details: MDA-MB-468, 48 h
[50] = Growth inhibition of human H1299 cells after 48 hrs by sulforhodamine B assay; format: functional; details: NCI-H1299, 48 h
[51] = tested on: Paracentrotus lividus; assay: Antimitotic microtubule destabilizing activity in Paracentrotus lividus L embryos assessed as induction of cleavage alteration
[52] = tested on: Paracentrotus lividus; assay: Antimitotic microtubule destabilizing activity in Paracentrotus lividus L embryos assessed as induction of cleavage arrest
[53] = tested on: Paracentrotus lividus; assay: Antimitotic microtubule destabilizing activity in Paracentrotus lividus L embryos assessed as induction of embryo spinning
[54] = Cytotoxicity against human NCI60 cells; format: functional
[55] = tested on: CCRF-CEM; assay: Growth inhibition of human CCRF-CEM cells after 48 hrs by sulforhodamine B assay; format: functional
[56] = tested on: HL-60(TB); assay: Growth inhibition of human HL-60(TB) cells after 48 hrs by sulforhodamine B assay; format: functional; details: HL-60, 48 h
[57] = tested on: K562; assay: Growth inhibition of human K562 cells after 48 hrs by sulforhodamine B assay; format: functional; details: K562, 48 h
[58] = Growth inhibition of human MOLT4 cells after 48 hrs by sulforhodamine B assay; format: functional; details: MOLT-4, 48 h
[59] = Growth inhibition of human RPMI8226 cells after 48 hrs by sulforhodamine B assay; format: functional; details: RPMI-8226, 48 h
[60] = tested on: SR; assay: Growth inhibition of human SR cells after 48 hrs by sulforhodamine B assay; format: functional
[61] = tested on: A549; assay: Growth inhibition of human A549/ATCC cells after 48 hrs by sulforhodamine B assay; format: functional; details: A549, 48 h
[62] = tested on: ZR-75-1; assay: Growth inhibition of human ZR-75-1 cells after 48 hrs by sulforhodamine B assay; format: functional; details: ZR-75-1, 48 h

For `COc1ccc2c(c1)OC(N)=C(C#N)C2c1cc(OC)c(OC)c(OC)c1` (racemic), the GI50 [1] was 251 nM, the GI50 [2] was 62.6 nM and the GI50 [3] was 20.7 nM. For the same molecule, the GI50 [4] was 83.9 nM, the GI50 [5] was 36.5 nM and the GI50 [6] was 48 nM. For the same molecule, the GI50 [7] was 34.4 nM, the GI50 [8] was 12.3 nM and the GI50 [9] was 28.1 nM. For the same molecule, the GI50 [10] was 28.2 nM, the GI50 [11] was 30.6 nM and the GI50 [12] was 32.8 nM. For the same molecule, the GI50 [13] was 27.8 nM, the GI50 [14] was 25.1 nM and the GI50 [15] was 38.8 nM. For the same molecule, the GI50 [16] was 73.2 nM, the GI50 [17] was 25.2 nM and the GI50 [18] was 33.5 nM. It also gave a GI50 [19] of 86.4 nM, a GI50 [20] of 42.9 nM and a GI50 [21] of 26.2 nM. The GI50 [22] was 34 nM, the GI50 [23] was 25.5 nM and the GI50 [24] was 15 nM. The GI50 [25] was 27.6 nM, the GI50 [26] was 24 nM and the GI50 [27] was 37.1 nM. The GI50 [28] was 37.9 nM, the GI50 [29] was 42.5 nM and the GI50 [30] was 25.8 nM. It also gave a GI50 [31] of 80.8 nM, a GI50 [32] of 34.5 nM and a GI50 [33] of 19.9 nM. It also gave a GI50 [34] of 33 nM, a GI50 [35] of 49.4 nM and a GI50 [36] of 20.9 nM. For the same molecule, the GI50 [37] was 76 nM, the GI50 [38] was 146 nM and the GI50 [39] was 25.9 nM. The GI50 [40] was 58.7 nM, the GI50 [41] was 1570 nM and the GI50 [42] was 42.8 nM. For the same molecule, the GI50 [43] was 25.2 nM, the GI50 [44] was 34.2 nM and the GI50 [45] was 38.1 nM. For the same molecule, the GI50 [46] was 49 nM, the GI50 [47] was 25 nM and the GI50 [48] was greater than 100000 nM. The GI50 [49] was 21.6 nM, the GI50 [50] was 45 nM and the EC [51] was 0.01 µM. The EC [52] was 0.05 µM, the EC [53] was 0.5 µM and the GI50 [54] was 45 nM. For the same molecule, the GI50 [55] was 33.7 nM, the GI50 [56] was 25.6 nM and the GI50 [57] was 34.3 nM. The GI50 [58] was 37 nM, the GI50 [59] was 37.9 nM and the GI50 [60] was 27.1 nM. For the same molecule, the GI50 [61] was 37.6 nM.
Work on `COc1cc(OC)cc(C2C(C#N)=C(N)Oc3cc(OC)ccc32)c1` (configuration not stated) yielded a GI50 [48] of 14 nM, a GI50 [62] of 9 nM and a GI50 [50] of 32 nM. For the same molecule, the EC [51] was 0.0005 µM, the EC [52] was 0.005 µM and the EC [53] was 0.02 µM.

— ChEMBL document CHEMBL3352739, “Comparative in vivo evaluation of polyalkoxy substituted 4H-chromenes and oxa-podophyllotoxins as microtubule destabilizing agents in the phenotypic sea urchin embryo assay” (2014)
